The IC50 is the concentration at which inhibition is half-maximal.

T1 sequence (Q8IYL9 whole entry): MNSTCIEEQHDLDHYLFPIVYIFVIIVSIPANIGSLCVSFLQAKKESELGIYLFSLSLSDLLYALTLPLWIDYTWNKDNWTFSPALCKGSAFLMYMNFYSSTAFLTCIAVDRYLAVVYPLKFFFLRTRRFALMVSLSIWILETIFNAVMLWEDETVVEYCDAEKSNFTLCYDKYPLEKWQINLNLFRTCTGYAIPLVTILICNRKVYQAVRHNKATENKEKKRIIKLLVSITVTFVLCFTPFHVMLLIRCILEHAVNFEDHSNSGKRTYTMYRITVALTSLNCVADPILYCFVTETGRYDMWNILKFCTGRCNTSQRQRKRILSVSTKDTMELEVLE

This assay concerns the target T1, human recombinant GPR65 (Homo sapiens, UniProt Q8IYL9).
T1 construct: host or cells: 1321N1 human astrocytoma cells (1321N1-hrGPR65)
Description: Human GPR65 cAMP HTRF antagonist assay. Particulars: 1321N1-hrGPR65 cells, assay pH 7.2, cAMP HTRF; read-out: hGPR65 IC50. The class given is cell-based. As for the experimental part: Human GPR65 Cyclic Adenosine Monophosphate (cAMP) Homogeneous Time Resolved Fluorescence (HTRF) Antagonist Assay Procedure
IC50 data was obtained by the following procedure:
1321N1 human astrocytoma cells stably expressing human recombinant GPR65 (1321N1-hrGPR65 cells, EuroscreenFast) were cultured according to the vendor's instructions.
Compounds were tested for their ability to antagonise GPR65, through measuring the concentration of cytoplasmic cAMP following treatment of the cells at a pH of 7.2 to activate GPR65 signalling and addition of the compound to be tested. The extent to which the expected rise in cAMP concentration upon GPR65 activation was suppressed by the added compound is indicative of its potency. The assay was carried out according to EuroscreenFast assay Methodology as follows.
On the day of the assay, test compounds were added to 384-well, low volume, white microtiter plates by acoustic dispensing. KRH buffer (5 mM KCl, 1.25 mM MgSO4, 124 mM NaCl, 25 mM HEPES, 13.3 mM Glucose, 1.25 mM KH2PO4 and 1.45 mM CaCl2) was adjusted to pH 6.5, pH 7.6 and pH 8.4 by adding NaOH. 1321N1-hGPR65 cells were rapidly thawed and diluted in KRH, pH 7.6 prior to centrifugation at 300×g for 5 min and resuspension in assay buffer (KRH, pH 7.6, supplemented with 1 mM 3-isobutyl-1-methylxanthine (IBMX) and 200 μM ethylenediaminetetraacetic acid (EDTA)). Cells were added to assay plates at a density of 2,000 cells per well in a volume of 5 μl. Assay plates were briefly centrifuged at 100×g and then incubated at room temperature for 30 min. Cells were stimulated by the addition of 5 μL KRH, pH 6.5, to achieve an assay pH of 7.2, while control wells received 5 μl KRH, pH 8.4 to achieve an assay pH of 7.9. Assay plates were briefly centrifuged at 100×g and then incubated at room temperature for 30 min.
Accumulation of cAMP was detected by cAMP HTRF kit (Cisbio). d2-labeled cAMP and cryptate-labeled anti-cAMP antibody in Lysis and Detection Buffer (Cisbio) were added to assay plates, and the plates were incubated at room temperature for 1 h. HTRF measurements were performed using a Pherastar FSX instrument. Acceptor and donor emission signals were measured at 665 nm and 620 nm, respectively, and HTRF ratios were calculated as signal665 nm/signal620 nm×10^4. Data were normalised to high and low control values and fitted with 4-parameter logistic regression to determine hGPR65 IC50 values for the test compounds, which are shown in Table 1.
Turning to `O=C(Nc1cc(Cl)c(-c2ccc3nonc3c2)cc1F)N1CCc2cc(=O)[nH]cc2C1` [Compound 1, N-(4-(Benzo[c][1,2,5]oxadiazol-5-yl)-5-chloro-2-fluorophenyl)-6-oxo-3,4,6,7-tetrahydro-2,7-naphthyridine-2(1H)-carboxamide], the IC50 was under 500 nM.
As for `COc1ccc(-c2cc(F)c(NC(=O)N3CCc4cc(=O)[nH]cc4C3)cc2Cl)cn1` [Compound 2, N-(5-Chloro-2-fluoro-4-(6-methoxypyridin-3-yl)phenyl)-6-oxo-3,4,6,7-tetrahydro-2,7-naphthyridine-2(1H)-carboxamide], the IC50 was under 500 nM.
`O=C(Nc1cc(Cl)c(-c2ccc(F)nc2)cc1F)N1CCc2cc(=O)[nH]cc2C1` [Compound 3, N-(5-chloro-2-fluoro-4-(6-fluoropyridin-3-yl)phenyl)-6-oxo-3,4,6,7-tetrahydro-2,7-naphthyridine-2(1H)-carboxamide]: the IC50 was in the range of 500 to 5000 nM.
For `O=C(Nc1cc(Cl)c(-c2cnc3nonc3c2)cc1F)N1CCc2cc(=O)[nH]cc2C1` [Compound 4, N-(4-([1,2,5]Oxadiazolo[3,4-b]pyridin-6-yl)-5-chloro-2-fluorophenyl)-6-oxo-3,4,6,7-tetrahydro-2,7-naphthyridine-2(1H)-carboxamide], the IC50 lay in the range of 500 to 5000 nM.
As to `O=C(Nc1cc(Cl)c(-c2cnc3nonc3c2)cc1F)N1CCc2c(ccnc2F)C1` [Compound 5, N-(4-([1,2,5]Oxadiazolo[3,4-b]pyridin-6-yl)-5-chloro-2-fluorophenyl)-5-fluoro-3,4-dihydro-2,6-naphthyridine-2(1H)-carboxamide], the 50% inhibitory concentration (IC50) is under 500 nM.
For the compound `O=C(Nc1cc(Cl)c(-c2ccc(OCC(F)(F)F)nc2)cc1F)N1CCc2cc(=O)[nH]cc2C1` [Compound 6, N-(5-Chloro-2-fluoro-4-(6-(2,2,2-trifluoroethoxy)pyridin-3-yl)phenyl)-6-oxo-3,4,6,7-tetrahydro-2,7-naphthyridine-2(1H)-carboxamide], the IC50 is under 500 nM.
For the compound `O=C(Nc1cc(Cl)c(-c2cc(F)c3nonc3c2)cc1F)N1CCc2cc(=O)[nH]cc2C1` [Compound 7, N-(5-Chloro-2-fluoro-4-(7-fluorobenzo[c][1,2,5]oxadiazol-5-yl)phenyl)-6-oxo-3,4,6,7-tetrahydro-2,7-naphthyridine-2(1H)-carboxamide], the IC50 is under 500 nM.
For the compound `O=C(Nc1cc(Cl)c(-c2cc3nonc3cc2F)cc1F)N1CCc2cc(=O)[nH]cc2C1` [Compound 8, N-(5-Chloro-2-fluoro-4-(6-fluorobenzo[c][1,2,5]oxadiazol-5-yl)phenyl)-6-oxo-3,4,6,7-tetrahydro-2,7-naphthyridine-2(1H)-carboxamide], the IC50 was under 500 nM.
To `CC(C)COc1ccc(-c2cc(F)c(NC(=O)N3CCc4cc(=O)[nH]cc4C3)cc2Cl)cn1` [Compound 9, N-(5-Chloro-2-fluoro-4-(6-isobutoxypyridin-3-yl)phenyl)-6-oxo-3,4,6,7-tetrahydro-2,7-naphthyridine-2(1H)-carboxamide] belongs under 500 nM; to `O=C(Nc1cc(Cl)c(-c2cnc(OCC(F)(F)F)c(F)c2)cc1F)N1CCc2cc(=O)[nH]cc2C1` [Compound 10, N-(5-Chloro-2-fluoro-4-(5-fluoro-6-(2,2,2-trifluoroethoxy)pyridin-3-yl)phenyl)-6-oxo-3,4,6,7-tetrahydro-2,7-naphthyridine-2(1H)-carboxamide], under 500 nM; to `O=C(Nc1cc(Cl)c(-c2ccnc(OCC(F)(F)F)c2)cc1F)N1CCc2cc(=O)[nH]cc2C1` [Compound 11, N-(5-Chloro-2-fluoro-4-(2-(2,2,2-trifluoroethoxy)pyridin-4-yl)phenyl)-6-oxo-3,4,6,7-tetrahydro-2,7-naphthyridine-2(1H)-carboxamide], under 500 nM.
For `O=C(Nc1cc(Cl)c(-c2ccc(OCC(F)(F)F)nc2)cc1F)N1CCc2cc(=O)[nH]nc2C1` [Compound 12, N-(5-Chloro-2-fluoro-4-(6-(2,2,2-trifluoroethoxy)pyridin-3-yl)phenyl)-3-oxo-2,5,6,8-tetrahydropyrido[3,4-c]pyridazine-7(3H)-carboxamide], the IC50 is under 500 nM.
With `O=C(Nc1cc(Cl)c(-c2ccc3nonc3c2)cc1F)N1CCc2cc(=O)[nH]nc2C1` [Compound 13, N-(4-(Benzo[c][1,2,5]oxadiazol-5-yl)-5-chloro-2-fluorophenyl)-3-oxo-2,5,6,8-tetrahydropyrido[3,4-c]pyridazine-7(3H)-carboxamide] the figure was under 500 nM; with `COc1cc(-c2ccc(OCC(F)(F)F)nc2)c(Cl)cc1NC(=O)N1CCc2cc(=O)[nH]cc2C1` [Compound 14, N-(5-chloro-2-methoxy-4-(6-(2,2,2-trifluoroethoxy)pyridin-3-yl)phenyl)-6-oxo-3,4,6,7-tetrahydro-2,7-naphthyridine-2(1H)-carboxamide], 500 to 5000 nM.
With `Cc1cc(-c2ccc(OCC(F)(F)F)nc2)c(Cl)cc1NC(=O)N1CCc2cc(=O)[nH]cc2C1` [Compound 15, N-(5-Chloro-2-methyl-4-(6-(2,2,2-trifluoroethoxy)pyridin-3-yl)phenyl)-6-oxo-3,4,6,7-tetrahydro-2,7-naphthyridine-2(1H)-carboxamide] the figure was 500 to 5000 nM; with `O=C(Nc1cc(Cl)c(-c2ccc(F)nc2)cc1OCc1ccccc1)N1CCc2cc(=O)[nH]cc2C1` [Compound 16, N-(2-(Benzyloxy)-5-chloro-4-(6-fluoropyridin-3-yl)phenyl)-6-oxo-3,4,6,7-tetrahydro-2,7-naphthyridine-2(1H)-carboxamide], over 5000 nM.

For the origin of these results see patent US20260216151A1, “GPR65 MODULATORS” (Pathios Therapeutics Limited, priority 2023, published 2026).
